Measurements taken from the supplement of paper PMC10307832.

Key:
Assay in all cases: relative viability (nuclei count vs DMSO), 5 days (fraction); higher = more cells survive
[1] = compound: C1CN(CCC1C(C2=CC3=C(C=C2)OCO3)(C4=CC5=C(C=C4)OCO5)O)C(=O)OC6=CC=C(C=C6)[N+](=O)[O-] [JZL-184] + N=C(N)NC(=N)NCCc1ccccc1 [Phenformin] (partner 250 µM)
Outline: (§1)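 Lung cancer cell lines, seeded in 1536-well plates, were treated the following day by pin tool with a single drug or with five library-drug doses (not always all listed) in √10 steps on top of a fixed anchor-drug dose. Cells were fixed and nuclei stained in one step after 5 days, and nuclei were counted. Relative viability is the nuclei count for treated wells divided by that for vehicle wells, reported as medians of duplicate plates.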

[2] = compound: C1CN(CCC1C(C2=CC3=C(C=C2)OCO3)(C4=CC5=C(C=C4)OCO5)O)C(=O)OC6=CC=C(C=C6)[N+](=O)[O-] [JZL-184] + C[C@]1(O)C[C@@H](c2nc(-c3ccc4ccc(-c5ccccc5)nc4c3)c3c(N)nccn32)C1 [Linsitinib] (partner 1 µM)
Outline: as §1

[3] = compound: C1CN(CCC1C(C2=CC3=C(C=C2)OCO3)(C4=CC5=C(C=C4)OCO5)O)C(=O)OC6=CC=C(C=C6)[N+](=O)[O-] [JZL-184] + COc1cc2c(Oc3ccc(NC(=O)C4(C(=O)Nc5ccc(F)cc5)CC4)cc3F)ccnc2cc1OCCCN1CCOCC1 [Foretinib] (partner 0.25 µM)
Outline: as §1

[4] = compound: C1CN(CCC1C(C2=CC3=C(C=C2)OCO3)(C4=CC5=C(C=C4)OCO5)O)C(=O)OC6=CC=C(C=C6)[N+](=O)[O-] [JZL-184] + C[C@@H](Oc1cc(-c2cnn(C3CCNCC3)c2)cnc1N)c1c(Cl)ccc(F)c1Cl [Crizotinib] (partner 1 µM)
Outline: as §1

[5] = compound: C1CN(CCC1C(C2=CC3=C(C=C2)OCO3)(C4=CC5=C(C=C4)OCO5)O)C(=O)OC6=CC=C(C=C6)[N+](=O)[O-] [JZL-184]
Outline: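 MetaXpress counted nuclei in 4× images of lung cancer cell lines that had been fixed, permeabilised and Hoechst-stained in one step. Before that, cells in 1536-well plates were kept overnight at 37 °C, pinned with five √10-spaced library-drug doses on vehicle-anchored plates, and cultured 5 days without medium change. Viability takes treated-well nuclei over vehicle-well nuclei and uses the median across plates. Plates were accepted only at control CV below 25% and at least one doubling.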

SK-LU-1
relative viability ([1]; first compound 0.04 µM): 0.528
relative viability ([1]; first compound 0.4 µM): 0.504
relative viability ([1]; first compound 1.265 µM): 0.677
relative viability ([1]; first compound 4 µM): 0.564
relative viability ([2]; first compound 0.04 µM): 1.29
relative viability ([2]; first compound 0.4 µM): 1.02
relative viability ([2]; first compound 1.265 µM): 1.11
relative viability ([2]; first compound 4 µM): 1.11
relative viability ([3]; first compound 0.04 µM): 0.909
relative viability ([3]; first compound 0.4 µM): 0.77
relative viability ([3]; first compound 1.265 µM): 0.919
relative viability ([3]; first compound 4 µM): 0.722
relative viability ([4]; first compound 0.04 µM): 1.05
relative viability ([4]; first compound 0.4 µM): 0.889
relative viability ([4]; first compound 1.265 µM): 1.15
relative viability ([4]; first compound 4 µM): 1.11
relative viability ([5]; 0.04 µM): 1.11
relative viability ([5]; 0.4 µM): 0.982
relative viability ([5]; 1.265 µM): 1.15
relative viability ([5]; 4 µM): 1.02

NCI-H1437
relative viability ([1]; first compound 0.04 µM): 0.301
relative viability ([1]; first compound 0.4 µM): 0.307
relative viability ([1]; first compound 1.265 µM): 0.302
relative viability ([1]; first compound 4 µM): 0.288
relative viability ([2]; first compound 0.04 µM): 1.24
relative viability ([2]; first compound 0.4 µM): 1.01
relative viability ([2]; first compound 1.265 µM): 1.07
relative viability ([2]; first compound 4 µM): 0.958
relative viability ([3]; first compound 0.04 µM): 1.27
relative viability ([3]; first compound 0.4 µM): 1.16
relative viability ([3]; first compound 1.265 µM): 1.31
relative viability ([3]; first compound 4 µM): 1.21
relative viability ([4]; first compound 0.04 µM): 0.938
relative viability ([4]; first compound 0.4 µM): 0.889
relative viability ([4]; first compound 1.265 µM): 0.888
relative viability ([4]; first compound 4 µM): 0.841
relative viability ([5]; 0.04 µM): 1.04
relative viability ([5]; 0.4 µM): 0.948
relative viability ([5]; 1.265 µM): 1.02
relative viability ([5]; 4 µM): 0.961

NCI-H1734
relative viability ([1]; first compound 0.04 µM): 0.469
relative viability ([1]; first compound 0.4 µM): 0.36
relative viability ([1]; first compound 1.265 µM): 0.38
relative viability ([1]; first compound 4 µM): 0.349
relative viability ([2]; first compound 0.04 µM): 0.852
relative viability ([2]; first compound 0.4 µM): 0.796
relative viability ([2]; first compound 1.265 µM): 0.898
relative viability ([2]; first compound 4 µM): 0.86
relative viability ([3]; first compound 0.04 µM): 0.982
relative viability ([3]; first compound 0.4 µM): 0.743
relative viability ([3]; first compound 1.265 µM): 0.957
relative viability ([3]; first compound 4 µM): 0.771
relative viability ([4]; first compound 0.04 µM): 0.806
relative viability ([4]; first compound 0.4 µM): 0.617
relative viability ([4]; first compound 1.265 µM): 0.672
relative viability ([4]; first compound 4 µM): 0.701
relative viability ([5]; 0.04 µM): 1.12
relative viability ([5]; 0.4 µM): 0.865
relative viability ([5]; 1.265 µM): 1.03
relative viability ([5]; 4 µM): 0.963

LK-2
relative viability ([1]; first compound 0.04 µM): 0.374
relative viability ([1]; first compound 0.4 µM): 0.676
relative viability ([1]; first compound 1.265 µM): 0.678
relative viability ([1]; first compound 4 µM): 0.416
relative viability ([2]; first compound 0.04 µM): 0.733
relative viability ([2]; first compound 0.4 µM): 0.559
relative viability ([2]; first compound 1.265 µM): 0.662
relative viability ([2]; first compound 4 µM): 0.583
relative viability ([3]; first compound 0.04 µM): 1.27
relative viability ([3]; first compound 0.4 µM): 1.11
relative viability ([3]; first compound 1.265 µM): 1.31
relative viability ([3]; first compound 4 µM): 1.5
relative viability ([4]; first compound 0.04 µM): 0.223
relative viability ([4]; first compound 0.4 µM): 0.232
relative viability ([4]; first compound 1.265 µM): 0.211
relative viability ([4]; first compound 4 µM): 0.22
relative viability ([5]; 0.04 µM): 1.13
relative viability ([5]; 0.4 µM): 0.928
relative viability ([5]; 1.265 µM): 1.21
relative viability ([5]; 4 µM): 0.944

HCC-15
relative viability ([1]; first compound 0.04 µM): 0.548
relative viability ([1]; first compound 0.4 µM): 0.467
relative viability ([1]; first compound 1.265 µM): 0.485
relative viability ([1]; first compound 4 µM): 0.454
relative viability ([2]; first compound 0.04 µM): 0.939
relative viability ([2]; first compound 0.4 µM): 0.889
relative viability ([2]; first compound 1.265 µM): 1
relative viability ([2]; first compound 4 µM): 0.781
relative viability ([3]; first compound 0.04 µM): 1.25
relative viability ([3]; first compound 0.4 µM): 1.01
relative viability ([3]; first compound 1.265 µM): 1.11
relative viability ([3]; first compound 4 µM): 1.03
relative viability ([4]; first compound 0.04 µM): 0.944
relative viability ([4]; first compound 0.4 µM): 0.808
relative viability ([4]; first compound 1.265 µM): 0.883
relative viability ([4]; first compound 4 µM): 0.762
relative viability ([5]; 0.04 µM): 1.07
relative viability ([5]; 0.4 µM): 1.03
relative viability ([5]; 1.265 µM): 1.08
relative viability ([5]; 4 µM): 0.978

HCC-366
relative viability ([1]; first compound 0.04 µM): 0.664
relative viability ([1]; first compound 0.4 µM): 0.553
relative viability ([1]; first compound 1.265 µM): 0.653
relative viability ([1]; first compound 4 µM): 0.624
relative viability ([2]; first compound 0.04 µM): 0.643
relative viability ([2]; first compound 0.4 µM): 0.49
relative viability ([2]; first compound 1.265 µM): 0.675
relative viability ([2]; first compound 4 µM): 0.63
relative viability ([3]; first compound 0.04 µM): 0.986
relative viability ([3]; first compound 0.4 µM): 0.889
relative viability ([3]; first compound 1.265 µM): 0.931
relative viability ([3]; first compound 4 µM): 0.958
relative viability ([4]; first compound 0.04 µM): 0.827
relative viability ([4]; first compound 0.4 µM): 0.443
relative viability ([4]; first compound 1.265 µM): 0.526
relative viability ([4]; first compound 4 µM): 0.5
relative viability ([5]; 0.04 µM): 1.09
relative viability ([5]; 0.4 µM): 0.958
relative viability ([5]; 1.265 µM): 1.06
relative viability ([5]; 4 µM): 1.02

NCI-H650
relative viability ([1]; first compound 0.04 µM): 0.44
relative viability ([1]; first compound 0.4 µM): 0.388
relative viability ([1]; first compound 1.265 µM): 0.469
relative viability ([1]; first compound 4 µM): 0.422
relative viability ([2]; first compound 0.04 µM): 0.966
relative viability ([2]; first compound 0.4 µM): 0.62
relative viability ([2]; first compound 1.265 µM): 0.933
relative viability ([2]; first compound 4 µM): 0.747
relative viability ([3]; first compound 0.04 µM): 1.08
relative viability ([3]; first compound 0.4 µM): 1.12
relative viability ([3]; first compound 1.265 µM): 1.09
relative viability ([3]; first compound 4 µM): 1.01
relative viability ([4]; first compound 0.04 µM): 0.872
relative viability ([4]; first compound 0.4 µM): 0.73
relative viability ([4]; first compound 1.265 µM): 0.814
relative viability ([4]; first compound 4 µM): 0.685
relative viability ([5]; 0.04 µM): 1.03
relative viability ([5]; 0.4 µM): 0.762
relative viability ([5]; 1.265 µM): 1.1
relative viability ([5]; 4 µM): 0.979

NCI-H2347
relative viability ([1]; first compound 0.04 µM): 0.357
relative viability ([1]; first compound 0.4 µM): 0.393
relative viability ([1]; first compound 1.265 µM): 0.369
relative viability ([1]; first compound 4 µM): 0.536
relative viability ([2]; first compound 0.04 µM): 0.98
relative viability ([2]; first compound 0.4 µM): 0.953
relative viability ([2]; first compound 1.265 µM): 0.926
relative viability ([2]; first compound 4 µM): 0.946
relative viability ([3]; first compound 0.04 µM): 0.771
relative viability ([3]; first compound 0.4 µM): 0.884
relative viability ([3]; first compound 1.265 µM): 1.13
relative viability ([3]; first compound 4 µM): 1.3
relative viability ([4]; first compound 0.04 µM): 0.968
relative viability ([4]; first compound 0.4 µM): 0.835
relative viability ([4]; first compound 1.265 µM): 0.694
relative viability ([4]; first compound 4 µM): 0.72
relative viability ([5]; 0.04 µM): 0.865
relative viability ([5]; 0.4 µM): 0.996
relative viability ([5]; 1.265 µM): 1.06
relative viability ([5]; 4 µM): 0.989
